Marks after values point to notes of the source that are not given here.
Assay: amounts of β-lactam antibiotic, β-lactamase inhibitor (C18 reverse-phase LC, UV-VIS) and aminoglycoside (HPLC-ELSD) in solution over time
Format: physicochemical

amount of component as percentage with respect to the amount at the initial time (Example 8: freeze-dried ceftriaxone sodium, tazobactam sodium, gentamicin sulfate, citrate pH 6.75, 2.5% fructose, 7 days 0° C., in 100 mL water, Time 0 h): 102.2%
amount of component as percentage with respect to the amount at the initial time (Example 8: freeze-dried ceftriaxone sodium, tazobactam sodium, gentamicin sulfate, citrate pH 6.75, 2.5% fructose, 7 days 0° C., in 100 mL water, Time 1 h): 97.53%
amount of component as percentage with respect to the amount at the initial time (Example 8: freeze-dried ceftriaxone sodium, tazobactam sodium, gentamicin sulfate, citrate pH 6.75, 2.5% fructose, 7 days 0° C., in 100 mL water, Time 2 h): 94.16%
amount of component as percentage with respect to the amount at the initial time (Example 8: freeze-dried ceftriaxone sodium, tazobactam sodium, gentamicin sulfate, citrate pH 6.75, 2.5% fructose, 7 days 0° C., in 100 mL water, Time 4 h): 94.58%
amount of component as percentage with respect to the amount at the initial time (Example 8: freeze-dried ceftriaxone sodium, tazobactam sodium, gentamicin sulfate, citrate pH 6.75, 2.5% fructose, 7 days 0° C., in 100 mL water, Time 6 h): 95.45%
amount of component as percentage with respect to the amount at the initial time (Example 8: freeze-dried ceftriaxone sodium, tazobactam sodium, gentamicin sulfate, citrate pH 6.75, 2.5% fructose, 7 days 0° C., in 100 mL water, Time 8 h): 94.44%
amount of component as percentage with respect to the amount at the initial time (Example 16: 10 mL of the final solution (cefoperazone sodium, tazobactam sodium, etimicin sulfate, citrate) + gentamicin sulfate 16 mg, Time 0 h): 93.36%
amount of component as percentage with respect to the amount at the initial time (Example 16: 10 mL of the final solution (cefoperazone sodium, tazobactam sodium, etimicin sulfate, citrate) + gentamicin sulfate 16 mg, Time 1 h): 104.8%
amount of component as percentage with respect to the amount at the initial time (Example 16: 10 mL of the final solution (cefoperazone sodium, tazobactam sodium, etimicin sulfate, citrate) + gentamicin sulfate 16 mg, Time 2 h): 100.0%
amount of component as percentage with respect to the amount at the initial time (Example 16: 10 mL of the final solution (cefoperazone sodium, tazobactam sodium, etimicin sulfate, citrate) + gentamicin sulfate 16 mg, Time 4 h): 96.58* %
amount of component as percentage with respect to the amount at the initial time (Example 16: 10 mL of the final solution (cefoperazone sodium, tazobactam sodium, etimicin sulfate, citrate) + gentamicin sulfate 16 mg, Time 6 h): 106.1* %
amount of component as percentage with respect to the amount at the initial time (Example 16: 10 mL of the final solution (cefoperazone sodium, tazobactam sodium, etimicin sulfate, citrate) + gentamicin sulfate 16 mg, Time 8 h): 107.1* %
amount of component as percentage with respect to the amount at the initial time (Example 16: freeze-dried cefoperazone sodium 4 g, tazobactam sodium 1 g, citrate pH 6.75, 7 days 0° C., in 100 mL water, 10 mL + etimicin sulfate 20 mg, room temperature, Time 0 h): 98.77%
amount of component as percentage with respect to the amount at the initial time (Example 16: freeze-dried cefoperazone sodium 4 g, tazobactam sodium 1 g, citrate pH 6.75, 7 days 0° C., in 100 mL water, 10 mL + etimicin sulfate 20 mg, room temperature, Time 1 h): 108.2%
amount of component as percentage with respect to the amount at the initial time (Example 16: freeze-dried cefoperazone sodium 4 g, tazobactam sodium 1 g, citrate pH 6.75, 7 days 0° C., in 100 mL water, 10 mL + etimicin sulfate 20 mg, room temperature, Time 2 h): 110.8%
amount of component as percentage with respect to the amount at the initial time (Example 16: freeze-dried cefoperazone sodium 4 g, tazobactam sodium 1 g, citrate pH 6.75, 7 days 0° C., in 100 mL water, 10 mL + etimicin sulfate 20 mg, room temperature, Time 4 h): 97.39%
amount of component as percentage with respect to the amount at the initial time (Example 16: freeze-dried cefoperazone sodium 4 g, tazobactam sodium 1 g, citrate pH 6.75, 7 days 0° C., in 100 mL water, 10 mL + etimicin sulfate 20 mg, room temperature, Time 6 h): 106.3%
amount of component as percentage with respect to the amount at the initial time (Example 16: freeze-dried cefoperazone sodium 4 g, tazobactam sodium 1 g, citrate pH 6.75, 7 days 0° C., in 100 mL water, 10 mL + etimicin sulfate 20 mg, room temperature, Time 8 h): 106.3%
amount of component as percentage with respect to the amount at the initial time (Example 20: ceftriaxone sodium 2 g, tazobactam sodium 2 g, gentamicin sulfate 160 mg, citrate pH 6.75, 200 mL water, room temperature, Time 0 h): 102.2%
amount of component as percentage with respect to the amount at the initial time (Example 20: ceftriaxone sodium 2 g, tazobactam sodium 2 g, gentamicin sulfate 160 mg, citrate pH 6.75, 200 mL water, room temperature, Time 1 h): 97.53%
amount of component as percentage with respect to the amount at the initial time (Example 20: ceftriaxone sodium 2 g, tazobactam sodium 2 g, gentamicin sulfate 160 mg, citrate pH 6.75, 200 mL water, room temperature, Time 2 h): 94.16%
amount of component as percentage with respect to the amount at the initial time (Example 20: ceftriaxone sodium 2 g, tazobactam sodium 2 g, gentamicin sulfate 160 mg, citrate pH 6.75, 200 mL water, room temperature, Time 4 h): 94.58%
amount of component as percentage with respect to the amount at the initial time (Example 20: ceftriaxone sodium 2 g, tazobactam sodium 2 g, gentamicin sulfate 160 mg, citrate pH 6.75, 200 mL water, room temperature, Time 6 h): 95.45%
amount of component as percentage with respect to the amount at the initial time (Example 20: ceftriaxone sodium 2 g, tazobactam sodium 2 g, gentamicin sulfate 160 mg, citrate pH 6.75, 200 mL water, room temperature, Time 8 h): 94.44%
Compound: C[C@]1(Cn2ccnn2)[C@H](C(=O)O)N2C(=O)C[C@H]2S1(=O)=O [Tazobactam sodium]
